Blank lines part the entries; values can stand above or below the compound they belong to. *1 amine or outer side, *2 acyl side, *3 side chain or, on linkers, in order; H or OH if unused. Where a SMILES comes first, the peptide text is derived from it. [ ]: non-standard residue; d: D form. X1 = COCCN1CCN(C[C@H](C)[C@@H](C(=O)[*:2])N(C)[*:1])CC1; MeBmt = C/C=C/C[C@@H](C)[C@@H](O)[C@H](NC)C(=O)O; NMeL = CN[C@@H](CC(C)C)C(=O)O; NMeV = CN[C@H](C(=O)O)C(C)C; dNMeA = CN[C@H](C)C(=O)O; Abu = CC[C@H](N)C(=O)O
How the values were obtained:
PPIF (cyclophilin D) [1] = target: T1, PPIF (cyclophilin D) (Homo sapiens, UniProt P30405); experiment: Collagen trimer secretion promotion in G1244D HEK293T cells with cyclophilins knocked down with siRNA; format: cell-based; conditions: siRNA 15 nM against 11 cyclophilins, CsA 1 μM, Alisporivir 2 μM, FIG. 8
T1 construct: endogenous in cells; host or cells: HEK293T stably expressing split-NanoLuc alpha345 (COL4A5-G1244D), with or without siRNA knock-down
T1 sequence (P30405 30-207): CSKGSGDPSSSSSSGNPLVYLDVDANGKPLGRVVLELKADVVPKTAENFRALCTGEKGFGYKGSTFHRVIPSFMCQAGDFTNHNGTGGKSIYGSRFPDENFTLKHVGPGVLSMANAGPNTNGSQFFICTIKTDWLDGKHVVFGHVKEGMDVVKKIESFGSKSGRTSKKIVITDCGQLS
Text: To elucidate the mechanism of collagen trimer secretion promotion by CsA and Alisporivir, cells in which cyclophilins to which CsA and Alisporivir can bind were knocked down with siRNA were produced, and the collagen trimer secretion promoting effect by CsA and Alisporivir in the cells was investigated comprehensively.
As the cells, G1244D mutation-introduced HEK293T cells—for which the effect of CsA and Alisporivir were confirmed in previous experiments—were used.
(§1) An cell line stably expressing split nano luciferase-fused α345 required for the NanoLuc α345 trimer assay was seeded on a 6 well plate (Corning) at 3×10^5 cells/well, and the siRNAs shown in Table 1 were introduced by lipofection at the time of subconfluence. The target genes are all cyclophilins, and the abbreviations in Table 1 indicate the following substances.
Lipofectamine RNAi Max was used for transfection of siRNA. The final siRNA concentration was adjusted to 15 nM, and transfection was performed according to the standard protocol. 24 hr after siRNA introduction, the cells were detached and reseeded on a LumiNuc 96 well white plate (Thermo) at 4×10^4 cells/well. […] Substrates were added 24 hr later to the culture supernatant and cells according to the standard method of NanoGlo live cell assay (Promega) reagent, and luminescence (index of trimer secretion) was measured by luminometer GloMax Navigator (Promega). […]

calcineurin = conditions: cited from earlier work
[2] = system: α3WT/α4WT/α5WT collagen trimer (COL4a5/WT); experiment: Type IV collagen α345 trimer assay by Nano luciferase, wild-type COL4A5 stable line; format: cell-based, Human; conditions: wild-type stable cell line, FIG. 5 upper
Method: HEK293T cells (Human Embryonic Kidney 293) were obtained from the RIKEN Cell Bank, and thereafter addition of virus concentration solution for COL4A4-3FLAG (Puro), COL4A3-SmBiT (Hyg), COL4A5-LgBiT (BSD) (Omachi K. et al., Cell Chemical Biology 2018, 25, 634-643) in this order, exchange of drug resistance containing medium, passage and preservation of surviving cells were repeated whereby a cell line stably expressing α345 (IV) trimer was generated. COL4A5 variant G1244D was prepared using pLVSIN EF1α BSD COL4A5-LgBiT as a template and using Quikchange (registered trade mark) II Site-directed Mutagenesis Kit (STRATAGENE (registered trade mark)). The primers used were follows. PCR reactions (95° C. for 1 min, one cycle; 95° C. for 50 sec, 60° C. for 50 sec, 68° C. for 90 sec/1 kb, 18 cycles; 68° C. for […]) were performed with each Primer. […]
A cell line stably expressing split nano luciferase-fused α345 required for the NanoLuc α345 trimer assay was seeded on LumiNuc 96 well white plate (Thermo). After 24 hr, the cells were cultured in phenol red-free DMEM complete medium containing 2-phosphate ascorbic acid (200 μM), substrates were added to the culture supernatant and cells according to the standard method of NanoGlo live cell assay (Promega) reagent, and luminescence was confirmed with luminometer GloMax Navigator (Promega). […]

[3] = system: α345 (COL4A5-G1244D) collagen trimer; experiment: Type IV collagen α345 trimer assay by Nano luciferase, COL4A5-G1244D stable line; format: cell-based, Human; conditions: for secretion level of collagen trimer as a function of concentration: COL4A5 (G1244D), concentration series up to 10 μM, FIG. 1-3; for collagen trimer secretion (luminescence of culture supernatant, ratio to DMSO-treated group): HEK293T line stably expressing α345 (COL4A5-G1244D), 24 hr treatment
Method: HEK293T cells (Human Embryonic Kidney 293) were obtained from the RIKEN Cell Bank, and thereafter addition of virus concentration solution for COL4A4-3FLAG (Puro), COL4A3-SmBiT (Hyg), COL4A5-LgBiT (BSD) (Omachi K. et al., Cell Chemical Biology 2018, 25, 634-643) in this order, exchange of drug resistance containing medium, passage and preservation of surviving cells were repeated whereby a cell line stably expressing α345 (IV) trimer was generated. COL4A5 variant G1244D was prepared using pLVSIN EF1α BSD COL4A5-LgBiT as a template and using Quikchange (registered trade mark) II Site-directed Mutagenesis Kit (STRATAGENE (registered trade mark)). The primers used were follows. PCR reactions (95° C. for 1 min, one cycle; 95° C. for 50 sec, 60° C. for 50 sec, 68° C. for 90 sec/1 kb, 18 cycles; 68° C. for […]) were performed with each Primer. The base sequence of DNA was confirmed by the cycle sequence method (Sigma-Aldrich JAPAN).
A cell line stably expressing split nano luciferase-fused α345 required for the NanoLuc α345 trimer assay was seeded on LumiNuc 96 well white plate (Thermo). After 24 hr, the cells were cultured in phenol red-free DMEM complete medium containing 2-phosphate ascorbic acid (200 μM), substrates were added to the culture supernatant and cells according to the standard method of NanoGlo live cell assay (Promega) reagent, and luminescence was confirmed with luminometer GloMax Navigator (Promega).
The cell line stably expressing α345 (COL4A5-G1244D) was detached and seeded on LumiNuc 96 well white plate (Thermo) at a density of 2×10^4 cells/well. 24 hr after seeding, the medium was exchanged with a phenol red-free DMEM complete medium containing 2-phosphate ascorbic acid (200 μM) and each concentration of cyclosporin A (CsA) (0.1, 0.5, 1, 2, 5, 10 μM), or each concentration of PSC-833 (0.5, 1, 2, 5, 10 μM), or each concentration of Alisporivir (0.1, 0.5, 5, 10 μM) and the cells were cultured. A substrate was added 24 hr later to the culture supernatant according to the standard method of NanoGlo live cell assay (Promega) reagent, and luminescence (index of trimer secretion) was measured by luminometer GloMax Navigator (Promega). The control solvent (CON) used was dimethyl sulfoxide (DMSO).

[4] = system: COL4A5 AS mutants (G227S, G594D, G624D, G869R, S916G, G1030S, G1107R, G1140V, G1220D, G1241C, G1241V, G1244D, P1517T, R1569Q) and Exon41-deleted variant; format: cell-based, Human; conditions: panel of 14 AS mutants, Exon41-deleted variant and wild type, FIG. 7
[5] = clinical trials (Zeuzem 2015; Buti 2015); cited from earlier work
[6] = system: α3WT/α4WT/α5G1241V collagen trimer (COL4a5/G1241V); format: cell-based, Human
PPIF (cyclophilin D) [7] = target: T1, PPIF (cyclophilin D); experiment: Collagen trimer secreting ability of G1244D HEK293T cells after knock-down of cyclophilins with siRNA; format: cell-based; conditions: G1244D mutant-transfected HEK293T cells, FIG. 9
Method: as §1
Lipofectamine RNAi Max was used for transfection of siRNA. The final siRNA concentration was adjusted to 15 nM, and transfection was performed according to the standard protocol. 24 hr after siRNA introduction, the cells were detached and reseeded on a LumiNuc 96 well white plate (Thermo) at 4×10^4 cells/well. 24 hr thereafter, the medium was exchanged with a phenol red-free DMEM complete medium containing 2-phosphate ascorbic acid (200 μM) and Cyclosporin A (CsA) (1 μM), or Alisporivir (2 μM) and the cells were cultured. Substrates were added 24 hr later to the culture supernatant and cells according to the standard method of NanoGlo live cell assay (Promega) reagent, and luminescence (index of trimer secretion) was measured by luminometer GloMax Navigator (Promega). The control solvent (CON) used was DMSO. […]

Compound: C/C=C/C[C@@H](C)[C@@H](O)[C@H]1C(=O)N[C@@H](CC)C(=O)N(C)[C@H](C)C(=O)N(CC)[C@@H](C(C)C)C(=O)N[C@@H](C(C)C)C(=O)N(C)[C@@H](CC(C)C)C(=O)N[C@@H](C)C(=O)N[C@H](C)C(=O)N(C)[C@@H](CC(C)C)C(=O)N(C)[C@@H](CC(C)C)C(=O)N(C)[C@@H](C(C)C)C(=O)N1C [Alisporivir]
effect of promoting the secretion of collagen trimers in cyclophilin knock-down cells (PPIF (cyclophilin D) [1]): decreased only in the cells knocked down with PPIF (cyclophilin D) | calcineurin inhibition (calcineurin): does not inhibit calcineurin | secretion of trimers of COL4a5/WT-containing collagen [2]: did not show an influence on COL4a5/WT | secretion level of collagen trimer as a function of concentration [3]: increases depending on the concentration of Alisporivir | action of promoting collagen trimer secretion compared with CsA ([3]; COL4A5-G1244D, concentrations of 5 μM and 10 μM, FIG. 4): stronger action of promoting collagen trimer secretion than CsA | collagen trimer secretion (luminescence of culture supernatant, ratio to DMSO-treated group) [3]: showed an action of promoting collagen trimer secretion | collagen trimer secretion in COL4A5 variants [4]: exhibited a significant effect in G1030S, G1107R, G1220D, G1241C, G1241V, G1244D, and Exon41-deleted variants | nephrotoxicity in clinical trials [5]: no nephrotoxicity | extracellular secretion of collagen trimers, COL4a5/G1241V ([6]; G1241V stable cell line, FIG. 5 lower): promoted extracellular secretion of collagen trimers

Compound: C/C=C/C[C@@H](C)[C@@H](O)[C@H]1C(=O)N[C@@H](CC)C(=O)N(C)[C@H](C)C(=O)N(C)[C@@H]([C@@H](C)CN2CCN(CCOC)CC2)C(=O)N[C@@H](C(C)C)C(=O)N(C)[C@@H](CC(C)C)C(=O)N[C@@H](C)C(=O)N[C@H](C)C(=O)N(C)[C@@H](CC(C)C)C(=O)N(C)[C@@H](CC(C)C)C(=O)N(C)[C@@H](C(C)C)C(=O)N1C [NIM258] (cyclo(A[dA][NMeL][NMeL][NMeV][MeBmt][Abu][dNMeA][X1]V[NMeL]))
calcineurin inhibition (calcineurin): does not inhibit calcineurin | extracellular secretion of collagen trimer compared with DMSO-administered group ([6]; 5 μM or 10 μM, G1241V cell line per FIG. 6): extracellular secretion of collagen trimers was promoted

intracellular expression level of collagen trimer ([3]; COL4A5-G1244D line, PSC-833 0.5-10 μM): did not affect | collagen trimer secretion (luminescence of culture supernatant, ratio to DMSO-treated group) [3]: did not affect collagen trimer secretion
Compound: C/C=C/C[C@@H](C)C(=O)[C@H]1C(=O)N[C@@H](C(C)C)C(=O)N(C)CC(=O)N(C)[C@@H](CC(C)C)C(=O)N[C@@H](C(C)C)C(=O)N(C)[C@@H](CC(C)C)C(=O)N[C@@H](C)C(=O)N[C@H](C)C(=O)N(C)[C@@H](CC(C)C)C(=O)N(C)[C@@H](CC(C)C)C(=O)N(C)[C@@H](C(C)C)C(=O)N1C [PSC-833]
calcineurin inhibition (calcineurin): does not inhibit calcineurin | secretion level of collagen trimer as a function of concentration [3]: does not increase even when the amount of PSC-833 is increased to 10 μM

Compound: siPPIF: siRNA against human PPIF (cyclophilin D), sense GGCAGAUGUCGUCCCAAAG, antisense CUUUGGGACGACAUCUGCC (SEQ ID NO: 27/28) (listed as RNA, chemistry not given here)
secretion level of collagen trimer, ratio to siGL2-treated group (PPIF (cyclophilin D) [7]): promotion of collagen trimer secretion was confirmed
